From patent publication US10189854B2, “Substituted pyrimidine compounds” (Grünenthal GmbH, priority 2014, dated 2019)

These compounds were tested against human PDE4B1 (Homo sapiens (Human), UniProt Q07343) (assay: TR-FRET assay using the LANCE Ultra cAMP kit to determine the activity of hPDE4B1). Settings: IC50 inhibition of PDE4B, mean.
Type: biochemical
Procedure, shortened: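 Recombinant human PDE4B1 (Sf9-expressed, 0.96 U) incubated with compound and 500 nM cAMP in 50 mM Tris-HCl, 50 mM MgCl2, 5 mM DTT, pH 8.5, 30 min at room temperature. Residual cAMP read by TR-FRET (665/620 nm ratio) after IBMX stop. IC50 from ten-concentration curves as % inhibition of control.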

Chain of human PDE4B1 (Q07343 whole entry): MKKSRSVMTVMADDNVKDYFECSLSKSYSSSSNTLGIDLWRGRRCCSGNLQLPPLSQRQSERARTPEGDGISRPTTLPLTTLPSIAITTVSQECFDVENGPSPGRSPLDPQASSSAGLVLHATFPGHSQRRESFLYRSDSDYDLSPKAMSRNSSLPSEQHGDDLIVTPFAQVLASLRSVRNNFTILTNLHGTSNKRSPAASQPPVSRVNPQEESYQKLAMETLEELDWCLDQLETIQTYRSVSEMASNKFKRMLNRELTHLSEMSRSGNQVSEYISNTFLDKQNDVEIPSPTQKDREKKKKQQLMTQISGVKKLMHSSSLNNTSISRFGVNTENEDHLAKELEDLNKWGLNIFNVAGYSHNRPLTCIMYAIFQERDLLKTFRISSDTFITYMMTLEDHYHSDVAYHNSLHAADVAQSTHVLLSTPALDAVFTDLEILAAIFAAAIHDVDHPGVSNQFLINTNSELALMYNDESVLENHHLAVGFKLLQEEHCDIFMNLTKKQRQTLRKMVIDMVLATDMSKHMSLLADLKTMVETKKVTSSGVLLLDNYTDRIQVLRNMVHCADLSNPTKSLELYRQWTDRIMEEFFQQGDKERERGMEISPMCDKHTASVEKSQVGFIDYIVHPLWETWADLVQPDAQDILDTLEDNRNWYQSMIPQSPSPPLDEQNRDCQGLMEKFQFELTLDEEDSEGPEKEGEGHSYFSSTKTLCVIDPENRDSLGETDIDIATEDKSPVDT

| IC50 [µM] | Structure (SMILES) |
| --- | --- |
| < 0.1 | CN(CC(N)=O)C(=O)c1ccc2c(c1)N(c1ncc(-c3cc(C4CC4)ccn3)cn1)CC21CC1 [Compound 337, N-(Carbamoyl-methyl)-1-[5-(4-cyclopropyl-pyridin-2-yl)-pyrimidin-2-yl]-N-methyl-spiro[1,2-dihydro-indole-3,1′-cyclopropane]-6-carboxylic acid amide] |
| < 0.1 | CC(=O)Nc1ccnc(-c2cnc(N3CC4(CC4)c4ccc(C(=O)N5C[C@@H]6C[C@H]5CN6)cc43)nc2)c1 [Compound 338, N-[2-[2-[6-[(1S,4S)-2,5-Diazabicyclo[2.2.1]heptane-2-carbonyl]-spiro[1,2-dihydro-indole-3,1′-cyclopropane]-1-yl]-pyrimidin-5-yl]-pyridin-4-yl]-acetamide] |
| < 0.1 | COc1cnnc(-c2cnc(N3CC4(CC4)c4ccc(C(=O)N(C)CCO)cc43)nc2)c1 [Compound 340, N-(2-Hydroxy-ethyl)-1-[5-(5-methoxy-pyridazin-3-yl)-pyrimidin-2-yl]-N-methyl-spiro[1,2-dihydro-indole-3,1′-cyclopropane]-6-carboxylic acid amide] |
| < 0.1 | CC[S+]([O-])c1cccc(-c2cnc(N3CC4(CC4)c4ccc(C(=O)N(C)CCO)cc43)nc2)c1 (centres unmarked) [Compound 341, 1-[5-[3-(Ethylsulfinyl)-phenyl]-pyrimidin-2-yl]-N-(2-hydroxy-ethyl)-N-methyl-spiro[1,2-dihydro-indole-3,1′-cyclopropane]-6-carboxylic acid amide] |
| < 0.1 | CN(CCO)C(=O)c1ccc2c(c1)N(c1ncc(-c3cccc(C[S+](C)[O-])c3)cn1)CC21CC1 (centres unmarked) [Compound 342, N-(2-Hydroxy-ethyl)-N-methyl-1-[5-[3-[(methylsulfinyl)-methyl]-phenyl]-pyrimidin-2-yl]-spiro[1,2-dihydro-indole-3,1′-cyclopropane]-6-carboxylic acid amide] |
| < 0.1 | CCNc1ccc(F)c(-c2cnc(N3CC4(CC4)c4ccc(C(=O)N(C)CCO)cc43)nc2)c1 [Compound 343, 1-[5-(5-Ethylamino-2-fluoro-phenyl)-pyrimidin-2-yl]-N-(2-hydroxy-ethyl)-N-methyl-spiro[1,2-dihydro-indole-3,1′-cyclopropane]-6-carboxylic acid amide] |
| < 0.1 | C[S+]([O-])c1ccnc(-c2cnc(N3CC4(CC4)c4ccc(C(=O)N5CCOCC5)cc43)nc2)c1 (centres unmarked) [Compound 344, (1′-(5-(4-(methylsulfinyl)pyridin-2-yl)pyrimidin-2-yl)spiro[cyclopropane-1,3′-indolin]-6′-yl)(morpholino)methanone] |
| < 0.1 | CS(=O)(=O)c1ccnc(-c2cnc(N3CC4(CC4)c4ccc(C(=O)N5CCOCC5)cc43)nc2)c1 [Compound 345, [1-[5-(4-Methylsulfonyl-pyridin-2-yl)-pyrimidin-2-yl]-spiro[1,2-dihydro-indole-3,1′-cyclopropane]-6-yl]-morpholin-4-yl-methanone] |
| < 0.1 | CC(=O)Nc1ccnc(-c2cnc(N3CC4(CC4)c4ccc(C(=O)N5CCOCC5)cc43)nc2)c1 [Compound 346, N-[2-[2-[6-(Morpholine-4-carbonyl)-spiro[1,2-dihydro-indole-3,1′-cyclopropane]-1-yl]-pyrimidin-5-yl]-pyridin-4-yl]-acetamide] |
| < 0.1 | CN(CCO)C(=O)c1ccc2c(c1)N(c1ncc(-c3cc(CO)cs3)cn1)CC21CC1 [Compound 347, N-(2-Hydroxy-ethyl)-1-[5-[4-(hydroxymethyl)-thiophen-2-yl]-pyrimidin-2-yl]-N-methyl-spiro[1,2-dihydro-indole-3,1′-cyclopropane]-6-carboxylic acid amide] |
| < 0.1 | CN(CCO)C(=O)c1ccc2c(c1)N(c1ncc(-c3cc(C(N)=O)cs3)cn1)CC21CC1 [Compound 348, 1-[5-(4-Carbamoyl-thiophen-2-yl)-pyrimidin-2-yl]-N-(2-hydroxy-ethyl)-N-methyl-spiro[1,2-dihydro-indole-3,1′-cyclopropane]-6-carboxylic acid amide] |
| < 0.1 | CN(CCO)C(=O)c1ccc2c(c1)N(c1ncc(-c3nc(CC#N)cs3)cn1)CC21CC1 [Compound 350, 1-[5-[4-(Cyano-methyl)-thiazol-2-yl]-pyrimidin-2-yl]-N-(2-hydroxy-ethyl)-N-methyl-spiro[1,2-dihydro-indole-3,1′-cyclopropane]-6-carboxylic acid amide] |
| < 0.1 | O=C(c1ccc2c(c1)N(c1ncc(-c3cc(C4(O)CC4)ccn3)cn1)CC21CC1)N1CCOCC1 [Compound 351, [1-[5-[4-(1-Hydroxy-cyclopropyl)-pyridin-2-yl]-pyrimidin-2-yl]-spiro[1,2-dihydro-indole-3,1′-cyclopropane]-6-yl]-morpholin-4-yl-methanone] |
| < 0.1 | O=C(c1ccc2c(c1)N(c1ncc(-c3ccccc3F)cn1)CC21CC1)N1CCO[C@H](CO)C1 [Compound 354, [1-[5-(2-Fluorophenyl)-pyrimidin-2-yl]-spiro[1,2-dihydro-indole-3,1′-cyclopropane]-6-yl]-[(2S)-2-(hydroxymethyl)-morpholin-4-yl]-methanone] |
| < 0.1 | C[S+]([O-])c1ccc(F)c(-c2cnc(N3CC4(CC4)c4ccc(C(=O)N5CCOCC5)cc43)nc2)c1 (centres unmarked) [Compound 355, [1-[5-[2-Fluoro-5-(methylsulfinyl)-phenyl]-pyrimidin-2-yl]-spiro[1,2-dihydro-indole-3,1′-cyclopropane]-6-yl]-morpholin-4-yl-methanone] |
| < 0.1 | Nc1ccnc(-c2cnc(N3CC4(CC4)c4ccc(C(=O)N5C[C@H]6C[C@@H]5CN6)cc43)nc2)c1 [Compound 356, [1-[5-(4-Amino-pyridin-2-yl)-pyrimidin-2-yl]-spiro[1,2-dihydro-indole-3,1′-cylcopropane]-6-yl]-[(1R,4R)-2,5-diazabicyclo[2.2.1]heptan-2-yl]-methanone] |
| < 0.1 | CN(CCO)C(=O)c1ccc2c(c1)N(c1ncc(-c3nc(CO)cs3)cn1)CC21CC1 [Compound 357, N-(2-Hydorxy-ethyl)-1-[5-[4-(hydroxymethyl)-thiazol-2-yl]-pyrimidin-2-yl]-N-methyl-spiro[1,2-dihydro-indole-3,1′-cyclopropane]-6-carboxylic acid amide] |
| < 0.1 | CC(=O)Oc1cccc(-c2cnc(N3CC4(CC4)c4ccc(C(=O)N(C)CCO)cc43)nc2)c1 [Compound 358, Acetic acid [3-[2-[6-[(2-hydroxy-ethyl)-methyl-carbamoyl]-spiro[1,2-dihydro-indole-3,1′-cyclopropane]-1-yl]-pyrimidin-5-yl]-phenyl]ester] |
| < 0.1 | CN(CCO)C(=O)c1ccc2c(c1)N(c1ncc(-c3cc(N4CCCC4)ccc3F)cn1)CC21CC1 [Compound 359, 1-[5-(2-Fluoro-5-pyrrolidin-1-yl-phenyl)-pyrimidin-2-yl]-N-(2-hydroxy-ethyl)-N-methyl-spiro[1,2-dihydro-indole-3,1′-cyclopropane]-6-carboxylic acid amide] |
| < 0.1 | CNC(=O)CN(C)C(=O)c1ccc2c(c1)N(c1ncc(-c3cc(C)ccn3)cn1)CC21CC1 [Compound 360, N-Methyl-N-(methylcarbamoyl-methyl)-1-[5-(4-methyl-pyridin-2-yl)-pyrimidin-2-yl]-spiro[1,2-dihydro-indole-3,1′-cyclopropane]-6-carboxylic acid amide] |
| 0.1 to 1 | COc1cc(C2CC2)cc(-c2cnc(N3CC4(CC4)c4ccc(C(=O)N(C)CCO)cc43)nc2)n1 [Compound 361, 1′-(5-(4-cyclopropyl-6-methoxypyridin-2-yl)pyrimidin-2-yl)-N-(2-hydroxyethyl)-N-methylspiro[cyclopropane-1,3′-indoline]-6′-carboxamide] |
| < 0.1 | O=C(c1ccc2c(c1)N(c1ncc(-c3ccccc3F)cn1)CC21CC1)N1CCO[C@@H](CO)C1 [Compound 362, [1-[5-(2-Fluorophenyl)-pyrimidin-2-yl]-spiro[1,2-dihydro-indole-3,1′-cyclopropane]-6-yl]-[(2R)-2-(hydroxymethyl)-morpholin-4-yl]-methanone] |
| < 0.1 | CN(CCO)C(=O)c1ccc2c(c1)N(c1ncc(-c3cc(C4(O)CC4)ccc3F)cn1)CC21CC1 [Compound 363, 1-[5-[2-Fluoro-5-(1-hydroxy-cyclopropyl)-phenyl]-pyrimidin-2-yl]-N-(2-hydroxy-ethyl)-N-methyl-spiro[1,2-dihydro-indole-3,1′-cyclopropane]-6-carboxylic acid amide] |
| < 0.1 | CN(CCO)C(=O)c1ccc2c(c1)N(c1ncc(-c3cc(F)ccc3F)cn1)CC21CC1 [Compound 364, 1-[5-(2,5-Difluoro-phenyl)-pyrimidin-2-yl]-N-(2-hydroxy-ethyl)-N-methyl-spiro[1,2-dihydro-indole-3,1′-cyclopropane]-6-carboxylic acid amide] |
| < 0.1 | CN(CCO)C(=O)c1ccc2c(c1)N(c1ncc(-c3cc(C(F)(F)F)ccc3F)cn1)CC21CC1 [Compound 365, 1-[5-[2-Fluoro-5-(trifluoromethyl)-phenyl]-pyrimidin-2-yl]-N-(2-hydroxy-ethyl)-N-methyl-spiro[1,2-dihydro-indole-3,1′-cyclopropane]-6-carboxylic acid amide] |

| Structure (SMILES) | IC50 [µM] |
| --- | --- |
| CN(CCO)C(=O)c1ccc2c(c1)N(c1ncc(-c3nc(CCO)cs3)cn1)CC21CC1 [Compound 339, N-(2-Hydroxy-ethyl)-1-[5-[4-(2-hydroxy-ethyl)-thiaozl-2-yl]-pyrimidin-2-yl]-N-methyl-spiro[1,2-dihydro-indole-3,1′-cyclopropane]-6-carboxylic acid amide] | < 0.1 |
